The nature of data set [1]: Lipids screened for complexation with CPT (fluorescent microscopy; % bound). Format: physicochemical. The text has this:
In order to prepare LC-CPT (a liposomal preparation containing CPT within spherical lipid vesicles) various individual lipids were screened for complexation with CPT. […] CPT crystals and lipid/CPT complexes of >0.4 microns can be visualized under a fluorescent microscope (since CPT fluoresces due to its rigid ring structure). […] Therefore, the better a lipid complexes with CPT the less CPT crystals are formed, and the more lipid/CPT complexes are formed.
Drug/lipid Complex Preparation. CPT was mixed in ratios of from 2:1 to 25:1 w/w lipid:drug in chloroform-methanol (8:1). For studies where CPT was radiolabeled, approximately 0.02 uCi/ml [^3 H] CPT was added to the preparation. Trace quantities of ^14 C labeled cholesterol was added to samples requiring lipid labeling. For small samples, the lipids were dried in 12×75 mm culture tubes under a stream of nitrogen gas. For large samples, a rotavapor (Buchi RE140, Switzerland) was used to dry lipids in a 100 to 1000 ml round bottom flasks. […] For liposomal CPT 0.9% Nace was used. Preparations were screened for lipid entrapment by light and fluorescent microscopy (Nikon Labophot-2, Japan). […]
Lipids of varying carbon chain length, charge, and saturation, alone or in different combinations, were empirically screened for their ability to form liposomes incorporating CPT by fluorescent microscopy.

The nature of data set [2]: Lipid-binding efficiency by differential centrifugation. In kind it is physicochemical. On the procedure:
Determination of Entrapment Efficiency.
A modification of the Ficoll flotation method for separating entrapped from free drug was used (Fraley et al.). […] samples were added to 12×75 mm culture tubes. One ml of 30% Ficoll was layered on the liposome preparation, then one ml of PBS was layered on top of the Ficoll. The tube was spun for 30 min at 3400 rpm in Sorvall GS2-B swing rotor. The percent entrapment was calculated with the formula: [formula]
(§1) These observation led the present inventors to other negatively charged lipids. […] Chromatographic evaluation of these preparations confirmed again that <5% of CPT eluted with the liposome fraction, the rest of the drug eluting later in a large number of consecutive fractions. By differential centrifugation, the lipid-binding efficiency of cardiolipin was about 67% and that of DO-NGPE 97%. DO-NGPE-CPT was, therefore, selected for further biological and pharmacological studies.

Data set [3] in a line: Chromatographic evaluation of CPT in the liposome fraction. In kind it is physicochemical. As to conditions: lipid used alone. On the procedure: Chromatography. A 30 cm agarose 0.5M column is used to separate liposome-bound drug from free CPT. PBS is used as the mobile phase for all preparations. Twenty samples were collected in 3 mL aliquots for a total of 60 mLs. Fluorescence and scintigraphy were used to detect encapsulated and free drug. Fluorimetry. Aliquots of 20 μl from each collection tube were transferred to cuvets containing 2 ml methanol. Fluorimetry was performed as described by Hart et al. (Hart et al., 1969). Fluorescence was measured at an excitation wavelength of 370 nm and emission wavelength of 434 nm (Perkin-Elmer MPF44A, Norwalk, Conn., U.S.A.). Two ml of ethanol was used as a control for machine calibration.
Chromatographic evaluation confirmed that <5% of CPT was incorporated in the liposome fraction of the preparation, the rest presumably being solubilized or in small particles not detectable by fluorescence microscopy.
as §1

The subject of data set [4] is KB, MDA-Panc3, and DIFI cell lines. Nature of the data set: MTT cytotoxicity, KB, MDA-Panc3 and DIFI cell lines taken together. In kind it is cell-based, human. How it is done:
(§2) Cell Lines. MDA-Panc3 cells(pancreas carcinoma), DiFi cells (colon carcinoma), and KB cells (squamous carcinoma) were used for in vitro data.
(§3) Cytotoxicity Assay. 8,000 cells/well in 135 ul of Dubelco's MEM with 10% fetal bovine serum (FBS) was added to 96-well culture plates. The plates were incubated for 14 h at 37° in the presence of 5% CO2. 15 µL of CPT, liposomal CPT (L-CPT), and empty liposomes (ELs) with CPT were added in concentrations of […] CPT. Lipids were added to each sample (5-25:1 lipid:drug weight ratio). The cells were incubated in the presence of drug for 24 to 120 h. After […] of 5 mg/ml MTT in PBS was added to the samples, the cells were incubated at 37° for 2 h. 100 µL of lysis buffer (50 ml DMF, 20 gm SDS, to total volume 100 ml with water, adjusted to pH 4.7 with NaOH) was added to each well. Plates were incubated for 14h at 37°, then read at 570 nm in a kinetic microplate reader. A dose of 0.1 M blank lipid was used as a control for 100% survival.
(§4) LC-CPT consisting of 12.5:1 DO-NGPE:CPT was used for in vitro assays of cytotoxicity. Lethal cellular injury induced by CPT requires prolonged exposure, cytotoxicity of L-CPT and controls were determined at 24, 72, and 120 hr intervals of continuous drug exposure.

The next data set in a line: Solubility of CPT. Format: physicochemical. An excerpt: Some lipophilic drugs such as taxol and taxotere can be solubilized by mild detergents, surfactants and alcohol- containing solutions; however, no similar vehicle has been identified for CPT lactone. […] Solutions containing chloroform and methanol can solubilize CPT, but are too toxic for clinically relevant studies.

In a further data set the test system is DIFI cells. In words: MTT cytotoxicity, DIFI cells. Format: cell-based, human. How it is done:
as §2, §3, §4

Another data set deals with KB cells. Nature of the data set: MTT cytotoxicity, KB cells. In kind it is cell-based, human. How it is done: as §2, §3, §4
For data set [5] the following is noted: it has been shown; cited from earlier work.
In the next data set the test system is L1210 leukemia. In words: Survival of mice inoculated IP with L1210 leukemia. Format: in vivo, mouse (B6D2Fl). As to conditions: for % T/C: 24 h after inoculation. How it is done:
In Vivo Protocol. B6D2Fl mice (Charles River Laboratories, Wilmington, Mass., U.S.A.) were injected with […] L1210 leukemia cells via the intraperitoneal route. A single intraperitoneal treatment with ELs, CPT, L-CPT, ELs +CPT was administered 24 hours after tumor inoculation. Five animals were used in each group except for the control group which consisted of 7 untreated mice.
Statistical Considerations. Animal survival data was plotted using the method described by Kaplan and Meier (Kaplan and Meier, 1958):
Because LC-CPT appeared to have improved potency compared to free CPT and LC-CPT caused early death at the highest doses, mice inoculated with L1210 leukemia were treated with doses of 30 to 60 mg/kg free CPT or 10 to 20 mg/kg of LC-CPT (Table 6). […] One animal treated with 15 mg/kg free CPT plus lipid survived 50 days.

The test system of a further data set is MDA-Panc3 cells. Nature of the data set: MTT cytotoxicity, MDA-Panc3 cells. In kind it is cell-based, human. The settings on record: 24-120 h. How it is done:
as §2, §3, §4

The nature of data set [6]: Organ distribution after i.v. administration. In kind it is in vivo, mice.
The next data set has as its system P388 leukemia. In words: Survival of mice inoculated IP with P388 leukemia. Format: in vivo, mouse (B6D2Fl). As to conditions: for long-term survivors, percent: FIG. 5b; for % T/C: 24 h after inoculation.

This is an account of results in patent US5834012A, “Lipid complexed topoisomerase I inhibitors” (Perez-Soler; Roman, priority 1995, dated 1998).

Where “and” joins values, the source holds several entries; their conditions need not be identical. Equal values may be shown once. Entries after “also recorded” stand apart in the source; their conditions may differ.

Regarding `CCCCCCCC/C=C\CCCCCCCC(=O)OCC(COP(=O)(O)OCCNC(=O)CCCC(=O)O)OC(=O)CCCCCCC/C=C\CCCCCCCC` (centres unmarked) [Dioleoyl-NGPE, dioleoyl-N-glutaryl-phosphatidyl ethanolamine], the Crystals entry in data set [1] (Table 1, lipid alone with CPT, fluorescent microscopy) is reported as “no”. In data set [1] (listed as DO-NGPE), the “interaction with CPT (in words)” value is “homogeneous and milky preparations devoid of drug crystals; also recorded: most favorable interaction”. The same compound came in with a lipid-binding efficiency in data set [2] of 97%. In data set [3], the “CPT incorporated in / eluted with the liposome fraction” value is less than 5%. Moreover, the “antitumor activity in vitro (in words)” value in data set [4] was “does not appear to have any intrinsic antitumor activity and does not inhibit the effects of CPT”.
Regarding `CC[C@@]1(O)C(=O)OCc2c1cc1n(c2=O)Cc2cc3ccccc3nc2-1` [CPT, Camptothecin], the “aqueous solubility (in words)” value in “Solubility of CPT” is “poor aqueous solubility”. Also, in the data set “Solubility of CPT” (CPT lactone), the “solubility in DMSO, Tween-20, cremophor, and methanol (in words)” value is “crystallization and precipitation of drug occurs”. In addition, the figures for the “cytotoxicity (in words)” value in the data set on DIFI cells (24-120 h), in the data set on KB cells (24 h) and in the data set on MDA-Panc3 cells were “significantly more toxic to cells at a concentration of 1M compared to 0.1M”, “somewhat more sensitive to CPT at 24 h than DIFI cells” and “modestly sensitive; also recorded: significantly more toxic to cells at a concentration of 1 μmol compared to 0.1 μmol; also recorded: somewhat more sensitive to CPT at 24 h than DIFI cells”, respectively. Moreover, the cellular viability result with DIFI cells (120 h) and in the data set on KB cells (120 h) was “approximately 40%” in each case. Moreover, the “activity of closed-lactone form relative to sodium salt” value in [5] is recorded as 10 fold. Also, the “antitumor activity / survival, L1210 (in words)” value with L1210 leukemia was “inactive”. The 50-day survivors in the data set with L1210 leukemia (30 mg/kg CPT) is recorded as 0; in the data set on L1210 leukemia (45 mg/kg CPT), 0; in the data set with L1210 leukemia (60 mg/kg CPT), 0; with P388 leukemia (P388, IP, 10 mg/kg CPT), “none”; in the data set on P388 leukemia (P388, IP, 20 mg/kg CPT) it was “none”. Further, the “% T/C” value in the data set on L1210 leukemia (30 mg/kg CPT) was found to be 85%; in the data set on L1210 leukemia (45 mg/kg CPT), 85%; in the data set on L1210 leukemia (60 mg/kg CPT), 92%; in the data set with P388 leukemia (P388, IP, 10 mg/kg CPT), 121%; in the data set on P388 leukemia (P388, IP, 20 mg/kg CPT) it was 100%. The “GI Tract level” value in [6] (6 hrs, i.v. 10 mg/kg CPT) is 2.562 ± 0.515 μg/ml or μg/mg dry tissue; in data set [6] (24 hrs, i.v. 10 mg/kg CPT), 0.492 ± 0.148 μg/ml or μg/mg dry tissue. Also, the Heart level is given as 1.458 ± 0.555 μg/ml or μg/mg dry tissue in data set [6] (6 hrs, i.v. 10 mg/kg CPT) and 0.228 ± 0.092 μg/ml or μg/mg dry tissue in data set [6] (24 hrs, i.v. 10 mg/kg CPT). Moreover, the Kidney level in data set [6] (6 hrs, i.v. 10 mg/kg CPT) was 0.443 ± 0.164 μg/ml or μg/mg dry tissue; in [6] (24 hrs, i.v. 10 mg/kg CPT) it was 0.539 ± 0.428 μg/ml or μg/mg dry tissue. Moreover, the Liver level in data set [6] (6 hrs, i.v. 10 mg/kg CPT) is listed as 2.077 ± 0.402 μg/ml or μg/mg dry tissue; in data set [6] (24 hrs, i.v. 10 mg/kg CPT), 0.429 ± 0.124 μg/ml or μg/mg dry tissue. Further, the Lung level in data set [6] (6 hrs, i.v. 10 mg/kg CPT) is 38.217 ± 3.061 μg/ml or μg/mg dry tissue; in data set [6] (24 hrs, i.v. 10 mg/kg CPT), 12.276 ± 5.363 μg/ml or μg/mg dry tissue. In data set [6] (i.v.), the “drug level in the lungs, free CPT relative to LC-CPT” value is recorded as “about 180 -fold”. The “biodistribution / clearance (in words)” value in [6] (i.v., mice, listed as free CPT) was “rapidly cleared from the blood; also recorded: Heart and kidney levels of free CPT were higher than those of LC-CPT”. In [6] (mouse, in vivo, iv, 6 hrs, i.v. 10 mg/kg CPT, read-out: Blood level), the concentration at 6 h is 69 ± 39 ng/mL. Moreover, the concentration at 24 h in data set [6] (mouse, in vivo, iv, 24 hrs, i.v. 10 mg/kg CPT, read-out: Blood level) was found to be 8 ± 12 ng/mL. The “long-term survivors, percent” value in the data set on P388 leukemia (IP, 20 mg/Kg) was found to be 20%; in the data set with P388 leukemia (IP, 40 mg/Kg), 60%. Also, in the data set on P388 leukemia (IP, 40 mg/kg CPT), the “treatment-related deaths / toxicity at 40 mg/kg” value is listed as “one treatment related death (day 8)”. For the same compound, the “antitumor activity, P388 (in words)” value in the data set on P388 leukemia (P388, IP) was “No activity”. In addition, in the data set on P388 leukemia (P388, IP, 40 mg/kg CPT, 40 mg/kg), the “50-day survivors / long-term survivors” value was 3 and 3/5. In the data set with P388 leukemia (P388, IP, dose not given), the “%T/C, similar antitumor activity compared” value is 207%.
